{"source": "paper PMC8954547", "about": "“Nonpeptidic Z360-Analogs Tagged with Trivalent Radiometals as Anti-CCK2R Cancer Theranostic Agents: A Preclinical Study” (Pharmaceutics, 2022)", "key": {"[1]": {"assay": "Radioligand stability in mice (radio-HPLC of blood and urine)", "format": "in vivo", "conditions": "mean ± SD", "description": "The formation of radiometabolites which can be detected in the blood was tested in blood samples collected 5 min post-injection (pi) of each of the radioligands [^67Ga]Ga/[^111In]In/[^177Lu]Lu-GAS1/3 and [^67Ga]Ga/[^111In]In-GAS2. For this study, in-house male Swiss albino mice (body weight: 30 ± 5 g, provided by the NCSR “Demokritos” Animal House) were used in groups of three. The animals received, through the tail vein, a 100-μL bolus containing each radioligand tested (2.5–3 nmol of the total conjugate in vehicle: saline/EtOH 9/1 v/v, corresponding to: up to 11 MBq for In-111, up to 13 MBq for Ga-67 and up to 74 MBq for Lu-177). Mice were euthanized, and blood was collected directly from the heart using a prechilled penicillin syringe and transferred in a prechilled EDTA-containing Eppendorf Protein LoBind® tube on ice (40 µL, 50 mM Na2EDTA solution). After centrifugation (10 min, 2000× g/4 °C, in a Hettich, Universal 320R, centrifuge), the blood plasma was collected, mixed with chilled MeCN in a 1/1 v/v ratio and centrifuged again (10 min, 15,000× g/4 °C). Supernatants were collected and concentrated to a small volume (≈50–100 μL) under a gentle N2-flux at 40 °C. They were then diluted with physiological saline (≈400 μL) and filtered through a Millex GV filter (0.22 μm, 13 mm Ø, Millipore, Milford, CT, USA). Aliquots of the filtrate were analyzed by radio-RP-HPLC using a Waters Symmetry Shield RP18 cartridge column (5 μm, 3.9 mm × 20 mm) eluted at a flow rate of 1.0 mL/min with the following gradient: 100% A/0% B to 55% A/45% B in 45 min; A = 0.1% aqueous TFA (v/v) and B = MeCN (system 2). The elution time (tR) of each parent radioligand was determined by coinjection of blood samples with an aliquot of the labeling solution on the HPLC column. Results were calculated as the average percentage of intact radioligand ± SD derived from three independent experiments.\nFollowing the same injection protocol, radioligands were administered in additional groups of mice, but this time animals were euthanized 30 min pi. The urine was immediately collected from the bladder using a prechilled syringe and transferred as before in a prechilled EDTA-containing Eppendorf Protein LoBind® centrifuge tube on ice (40 µL, 50 mM Na2EDTA solution) and 0.1 mL of physiological saline. Urine proteins were precipitated by adding chilled MeCN in a 1/1 v/v ratio followed by a 10 min centrifugation step (15,000× g/4 °C). The supernatant was then collected and treated following the blood sample workup procedure. Aliquots of the Millex-GV filtrate (containing >90% of total urine activity) were analyzed by radio-HPLC, adopting the aforementioned conditions. Results were calculated as the average percentage of intact radioligand ± SD derived from three independent experiments."}, "[2]": {"system": "HEK293-CCK2i4svR cells", "assay": "Radioligand uptake and internalization in HEK293-CCK2i4svR cells", "format": "cell-based, human", "description": "A day before the experiment, HEK293-CCK2i4svR cells were seeded in six-well plates. The next day, cells were rinsed with ice-cold internalization medium (IM: DMEM Glutamax-I, supplemented by 1% (v/v) FBS) and then the fresh medium was added (1.2 mL) at 37 °C. A further portion of IM (150 µL) was added in the upper well-row, and DG2 solution in IM (150 µL) was added in the lower row (to a final concentration of 1 μM; non-specific series). Each of the test radioligands, [^67Ga]Ga/[^111In]In/[^177Lu]Lu-GAS1/3 and [^67Ga]Ga/[^111In]In-GAS2, was finally added (250 fmol total conjugates in 150 μL 0.5% BSA-PBS) in all the wells and the plates were incubated at for 1 h at 37 °C in an Incubator-Orbital Shaker unit (MPM Instr. SrI, Bernareggio, MI, Italy); [^111In]In-GAS1/2/3 were incubated for 15 min, 30 min, 1 h and 2 h. At the predetermined time points, the plates were placed on ice, the medium was collected, and the plates were rinsed with 0.5% BSA-PBS (1 mL). Cells were subsequently treated with an acid-wash solution (2 × 600 µL; 50 mM glycine buffer pH 2.8, 0.1 M NaCl) and the fractions collected (membrane-bound). After briefly washing with 0.5% BSA-PBS (1 mL), the cells were lysed with 1 N NaOH (2 × 600 µL), and the fractions were collected (internalized). The radioactivity content of collected fractions was counted in the gamma counter, and the percentage of internalized and membrane-bound fractions per time point were calculated with Microsoft Excel. Specific internalized and membrane-bound counts were determined by subtracting the respective non-specific (in the presence of 1 μM DG2) from the respective total counts. Results represent specific internalized/membrane bound ± SD of total added radioactivity per well from three experiments performed in triplicate."}, "[3]": {"system": "SCID mice bearing twin HEK293-CCK2i4svR and wtHEK293 tumors", "assay": "Biodistribution in SCID mice bearing twin HEK293-CCK2i4svR and wtHEK293 xenografts", "format": "in vivo", "description": "Inocula containing a suspension of freshly harvested HEK293-CCK2i4svR/wtHEK293 cells (150 μL, 1.8 × 10^7/1.4 × 10^7 cells, respectively, in normal saline) were subcutaneously (sc) injected in the right and left flanks of male SCID mice (24.5 ± 2.3 g body weight, six weeks of age on arrival day, NCSR “Demokritos” Animal House Facility). Well-palpable tumors (0.42 ± 0.37/0.25 ± […], respectively) were grown at the inoculation site 3–4 weeks later, and biodistribution was conducted. On the day of biodistribution, animals were divided into groups of four and received the radioligand through the tail vein as a bolus (100 μL, containing each of: i. 78–91 kBq [^67Ga]GAS1/2/3 corresponding to 7–17 pmol GAS1/2/3; ii. 74–92 kBq [^111In]GAS1/2/3 corresponding to 20–25 pmol GAS1/2/3; iii. 730 kBq [^177Lu]Lu-GAS1/3 corresponding to 40 pmol GAS1/3, in-vehicle: saline/EtOH 9/1 v/v). Animals were euthanized at predetermined time intervals depending upon the radionuclide applied (for [^67Ga]Ga-GAS1/2/3: 1, 4 and 24 h pi; for [^111In]In-GAS1/2/3: 4 and 24 h pi–two extra groups of mice receiving gelofusine together with [^111In]In-GAS1/2 at 4 and 24 h pi were included; and for [^177Lu]Lu-GAS1/3: 4, 24, 48, 72 and 96 h pi). Mice were dissected, and blood samples, organs of interest and tumors were rapidly collected, weighted and counted in the gamma counter. Biodistribution data was calculated as the percentage of the administered dose per gram tissue (%IA/g) with the aid of suitable standards of the administered dose and the Microsoft Excel program. Results are presented as mean % IA/g values ± SD, n = 4 per time point, as determined by the PRISM^TM 6.0 GraphPad software (San Diego, CA, USA)."}}}
{"smiles": "CC(C)(C)C(=O)CN1C(=O)[C@H](NC(=O)Nc2cccc(C(=O)NCCOCCOCCOCCNC(=O)[C@H](CCC(=O)O)NC(=O)CN3CCN(CC(=O)[O-])CCN(CC(=O)[O-])CCN(CC(=O)[O-])CC3)c2)CN(C2CCCCC2)c2ccccc21.[67Ga+3]", "note": "(stereo in doubt) [[^67Ga]Ga-GAS1]", "values": [{"measurement": "Intact radioligand in blood", "setting": "[1]; mice blood collected 5 min pi", "value": "93.9 ± 0.6 (3) %"}, {"measurement": "Intact radioligand in urine", "setting": "[1]; mice urine collected 30 min pi", "value": "80.2 ± 1.0 (3) %"}, {"measurement": "Internalized to membrane-bound ratio", "setting": "[2]", "value": 0.7}, {"measurement": "Internalized fraction", "setting": "[2]; 1 h 37 °C, specific", "value": "1.79 ± 0.45 % of total added activity"}, {"measurement": "Cell uptake (internalized + membrane-bound)", "setting": "[2]; 1 h 37 °C, specific, of total added activity", "value": "4.26 ± 0.99", "unit": "%"}, {"measurement": "Biodistribution, Blood", "setting": "[3]; 1 h pi", "value": "6.53 ± 1.33", "unit": "%IA/g"}, {"measurement": "Biodistribution, CCK2i4svR(+) Tumor", "setting": "[3]; 1 h pi", "value": "12.62 ± 1.76", "unit": "%IA/g"}, {"measurement": "Biodistribution, CCK2i4svR(-) Tumor", "setting": "[3]; 1 h pi", "value": "1.62 ± 0.12", "unit": "%IA/g"}, {"measurement": "Biodistribution, Femur", "setting": "[3]; 1 h pi", "value": "0.97 ± 0.12", "unit": "%IA/g"}, {"measurement": "Biodistribution, Heart", "setting": "[3]; 1 h pi", "value": "2.11 ± 0.86", "unit": "%IA/g"}, {"measurement": "Biodistribution, Intestines", "setting": "[3]; 1 h pi", "value": "2.33 ± 0.44", "unit": "%IA/g"}, {"measurement": "Biodistribution, Kidneys", "setting": "[3]; 1 h pi", "value": "5.78 ± 0.48", "unit": "%IA/g"}, {"measurement": "Biodistribution, Liver", "setting": "[3]; 1 h pi", "value": "3.39 ± 0.35", "unit": "%IA/g"}, {"measurement": "Biodistribution, Lungs", "setting": "[3]; 1 h pi", "value": "3.63 ± 0.69", "unit": "%IA/g"}, {"measurement": "Biodistribution, Muscle", "setting": "[3]; 1 h pi", "value": "0.61 ± 0.07", "unit": "%IA/g"}, {"measurement": "Biodistribution, Pancreas", "setting": "[3]; 1 h pi", "value": "2.26 ± 0.18", "unit": "%IA/g"}, {"measurement": "Biodistribution, Spleen", "setting": "[3]; 1 h pi", "value": "1.63 ± 0.16", "unit": "%IA/g"}, {"measurement": "Biodistribution, Stomach", "setting": "[3]; 1 h pi", "value": "1.09 ± 0.22", "unit": "%IA/g"}, {"measurement": "Biodistribution, Blood", "setting": "[3]; 4 h pi", "value": "1.25 ± 0.27", "unit": "%IA/g"}, {"measurement": "Biodistribution, CCK2i4svR(-) Tumor", "setting": "[3]; 4 h pi", "value": "0.75 ± 0.19", "unit": "%IA/g"}, {"measurement": "Biodistribution, Femur", "setting": "[3]; 4 h pi", "value": "0.29 ± 0.16", "unit": "%IA/g"}, {"measurement": "Biodistribution, Heart", "setting": "[3]; 4 h pi", "value": "0.47 ± 0.09", "unit": "%IA/g"}, {"measurement": "Biodistribution, Intestines", "setting": "[3]; 4 h pi", "value": "2.84 ± 0.38", "unit": "%IA/g"}, {"measurement": "Biodistribution, Kidneys", "setting": "[3]; 4 h pi", "value": "3.59 ± 0.60", "unit": "%IA/g"}, {"measurement": "Biodistribution, Liver", "setting": "[3]; 4 h pi", "value": "2.49 ± 0.31", "unit": "%IA/g"}, {"measurement": "Biodistribution, Lungs", "setting": "[3]; 4 h pi", "value": "1.19±0.21", "unit": "%IA/g"}, {"measurement": "Biodistribution, Muscle", "setting": "[3]; 4 h pi", "value": "0.19±0.07", "unit": "%IA/g"}, {"measurement": "Biodistribution, Pancreas", "setting": "[3]; 4 h pi", "value": "0.51 ± 0.09", "unit": "%IA/g"}, {"measurement": "Biodistribution, Spleen", "setting": "[3]; 4 h pi", "value": "0.78±0.02", "unit": "%IA/g"}, {"measurement": "Biodistribution, Stomach", "setting": "[3]; 4 h pi", "value": "0.37 ± 0.08", "unit": "%IA/g"}, {"measurement": "Biodistribution, Blood", "setting": "[3]; 24 h pi", "value": "0.08 ± 0.01", "unit": "%IA/g"}, {"measurement": "Biodistribution, CCK2i4svR(+) Tumor", "setting": "[3]; 24 h pi", "value": "2.47 ± 0.41", "unit": "%IA/g"}, {"measurement": "Biodistribution, CCK2i4svR(-) Tumor", "setting": "[3]; 24 h pi", "value": "0.00 ± 0.00", "unit": "%IA/g"}, {"measurement": "Biodistribution, Femur", "setting": "[3]; 24 h pi", "value": "0.18 ± 0.04", "unit": "%IA/g"}, {"measurement": "Biodistribution, Heart", "setting": "[3]; 24 h pi", "value": "0.13 ± 0.01", "unit": "%IA/g"}, {"measurement": "Biodistribution, Intestines", "setting": "[3]; 24 h pi", "value": "0.32 ± 0.13", "unit": "%IA/g"}, {"measurement": "Biodistribution, Kidneys", "setting": "[3]; 24 h pi", "value": "0.88 ± 0.17", "unit": "%IA/g"}, {"measurement": "Biodistribution, Liver", "setting": "[3]; 24 h pi", "value": "0.75 ± 0.08", "unit": "%IA/g"}, {"measurement": "Biodistribution, Lungs", "setting": "[3]; 24 h pi", "value": "0.31 ± 0.16", "unit": "%IA/g"}, {"measurement": "Biodistribution, Muscle", "setting": "[3]; 24 h pi", "value": "0.05 ± 0.02", "unit": "%IA/g"}, {"measurement": "Biodistribution, Pancreas", "setting": "[3]; 24 h pi", "value": "0.22 ± 0.01", "unit": "%IA/g"}, {"measurement": "Biodistribution, Spleen", "setting": "[3]; 24 h pi", "value": "0.51 ± 0.12", "unit": "%IA/g"}, {"measurement": "Biodistribution, Stomach", "setting": "[3]; 24 h pi", "value": "0.18 ± 0.02", "unit": "%IA/g"}]}
